Measured values as given in ChEMBL document CHEMBL1212719, “In vivo effects of a GPR30 antagonist” (Nat Chem Biol, 2009).
The source made the active and inactive calls. No cut-off for these calls is given here.

Tests used:
Mus musculus [1] = experiment: Effect on uterine weight in ovariectomized C57B16 mouse at 2.4 to 27 nM, sc; assay type: functional, organism-based; details: Uterus
Mus musculus [2] = experiment: Inhibition of estrogen-induced GPR30-mediated epithelial uterine cell proliferation in sc dosed ovariectomized C57B16 mouse; assay type: functional, Uterine epithelium
[3] = target: T1, Estrogen receptor (Homo sapiens) (UniProt P03372); experiment: Antagonist activity in ERalpha-transfected COS7 cells assessed as inhibition of E2-mediated PI(3)K activation; assay type: functional, cell-based; details: COS-7
T1 sequence (whole entry): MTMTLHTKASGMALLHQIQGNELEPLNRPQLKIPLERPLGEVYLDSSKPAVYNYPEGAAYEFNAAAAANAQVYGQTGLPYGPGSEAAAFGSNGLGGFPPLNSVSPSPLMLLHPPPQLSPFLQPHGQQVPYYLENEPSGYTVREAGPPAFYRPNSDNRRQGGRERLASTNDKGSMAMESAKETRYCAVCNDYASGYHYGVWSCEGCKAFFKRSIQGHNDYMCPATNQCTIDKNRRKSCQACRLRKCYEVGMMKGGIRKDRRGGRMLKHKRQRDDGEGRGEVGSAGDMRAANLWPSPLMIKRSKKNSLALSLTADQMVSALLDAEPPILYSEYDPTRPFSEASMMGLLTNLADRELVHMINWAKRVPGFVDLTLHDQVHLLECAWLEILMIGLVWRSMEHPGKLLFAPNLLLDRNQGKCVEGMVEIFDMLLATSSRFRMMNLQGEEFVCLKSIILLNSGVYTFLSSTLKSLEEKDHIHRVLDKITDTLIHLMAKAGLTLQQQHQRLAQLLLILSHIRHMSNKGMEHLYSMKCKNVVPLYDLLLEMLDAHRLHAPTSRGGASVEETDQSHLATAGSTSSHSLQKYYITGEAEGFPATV

Mus musculus [4] = experiment: Inhibition of G1-induced GPR30-mediated epithelial uterine cell proliferation in sc dosed ovariectomized C57B16 mouse; assay type: functional, organism-based; details: Uterine epithelium
Estrogen receptor beta [5] = target: T2, Estrogen receptor beta (Homo sapiens, UniProt Q92731); experiment: Antagonist activity in ERbeta-transfected COS7 cells assessed as inhibition of E2-mediated PI(3)K activation; assay type: functional, cell-based; details: COS-7
Estrogen receptor beta [6] = target: T2, Estrogen receptor beta; experiment: Binding affinity to ERbeta receptor in COS7 cells by competitive binding assay; assay type: cell-based, COS-7
Mus musculus [7] = experiment: Inhibition of GPR30-mediated epithelial uterine cell proliferation in ovariectomized C57B16 mouse at 2.4 to 27 nM, sc relative to control; assay type: functional, organism-based; details: Uterine epithelium
Mus musculus [8] = experiment: Effect on uterine weight in ovariectomized C57B16 mouse at 0.1 to 2.4 nM, sc; assay type: functional, organism-based; details: Uterus

T2 sequence (Q92731 whole entry): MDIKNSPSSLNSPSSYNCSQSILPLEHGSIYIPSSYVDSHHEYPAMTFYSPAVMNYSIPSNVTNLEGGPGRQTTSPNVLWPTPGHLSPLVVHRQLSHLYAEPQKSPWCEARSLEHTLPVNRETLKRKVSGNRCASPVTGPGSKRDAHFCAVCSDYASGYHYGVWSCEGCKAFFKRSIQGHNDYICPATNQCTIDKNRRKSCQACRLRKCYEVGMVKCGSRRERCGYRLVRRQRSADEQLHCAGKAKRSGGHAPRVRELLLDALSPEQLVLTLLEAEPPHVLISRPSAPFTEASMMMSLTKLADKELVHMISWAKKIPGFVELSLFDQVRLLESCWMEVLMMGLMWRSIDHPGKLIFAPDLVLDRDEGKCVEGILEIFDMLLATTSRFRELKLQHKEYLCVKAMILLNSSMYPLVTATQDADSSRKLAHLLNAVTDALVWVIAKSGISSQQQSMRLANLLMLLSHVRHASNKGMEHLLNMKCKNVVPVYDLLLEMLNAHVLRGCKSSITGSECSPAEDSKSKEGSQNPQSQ

SMILES | Activity (Mus musculus [1]) | inhibition (INH) (Mus musculus [2]) [%] | Activity [3] | inhibition (Mus musculus [4]) | Activity (Estrogen receptor beta [5]) | Ki (Estrogen receptor beta [6]) [µM] | Activity (Mus musculus [7]) | Activity (Mus musculus [8])
Brc1cc2c(cc1[C@@H]1Nc3ccccc3[C@@H]3C=CC[C@@H]31)OCO2 | inactive | 50 | inactive | Active; Dose-dependent effect | inactive | > 10 | inactive | –
CC(=O)c1ccc2c(c1)[C@@H]1C=CC[C@@H]1[C@H](c1cc3c(cc1Br)OCO3)N2 | – | – | – | – | – | – | – | inactive
